Measured values published in patent US20220160751A1, “METHODS OF TREATMENT OF DISEASES AND DISORDERS ASSOCIATED WITH INCREASED TET LEVEL, INCREASED H19 LEVEL, INCREASED LEVEL OF TGF SIGNALING, OR ANY COMBINATION THEREOF” (YALE UNIVERSITY, priority 2019, published 2022).
“Also recorded” adds a separate entry of the source.

Columns and labels:
Type in all cases: cell-based
[1] = test system: LX-2 human hepatic stellate cells; assay: qPCR and immunoblotting of gene expression in LX-2 cells; details: TGF-β1 5 ng/mL vs vehicle, 24 h
Description: LX-2 human hepatic stellate cells (Yale Liver Center) were maintained in DMEM (Gibco, 11965-092) supplemented with 10% heat-inactivated fetal bovine serum (Gibco, 26140-079) and 1% PS (penicillin and streptomycin) at 37° C. in 5% humidified CO2 tissue culture incubator. Generally, cells were plated and transfected in a 24-well plate scale. For transfection with siRNA, let-7, or iLet7, 10 pmol of siTET3 (or siCon), let-7 (or miCon), or iLet7 (iCon) were mixed with 25 μl of OPTI-MEM (Gibco, 31985-070) by gentle pipetting. In parallel, 1 μl of Lipofectamine 3000 (ThermoFisher Scientific, L3000015) was mixed with 25 μl of OPTI-MEM. Then, the contents from the two tubes were mixed by gentle pipetting. After incubation for 5 min at RT, the resulting 50 μl solution was used to resuspend cell pellet (5×10^4 cells). After incubation at RT for 10 min, 450 μl of growth medium was added and the cell suspension was transferred into one well of a 24-well plate. For transfection with TET3-expression plasmid pTET3 (pcDNA-Flag-Tet3, Addgene plasmid #60940, (30)) or control vector, 5×10^4 cells per well were seeded in a 24-well plate the night before transfection. The next day, 0.75 μg of pTET3 (or Vec) were mixed with 1 μl of P3000 in 25 μl of OPTI-MEM by gentle pipetting. In parallel, 0.5 μl of Lipofectamine 3000 were mixed with 25 μl of OPTI-MEM. The contents from the two tubes were combined by gentle pipetting and incubated for 5 min at RT. The resulting 50 μl of transfection solution was added to each well of cells seeded in a 24-well plate the night before and from which the growth medium had been removed. After 6 h of incubation in a tissue culture incubator, 500 μl of growth medium were added to each well of cells. For TGF-β1 (Sigma, USA) treatment experiments, transfected cells were incubated in 500 μl of serum-free DMEM containing 5 ng/mL TGF-β1 (diluted with HCl) or HCl (as control) for 24 h or 48 h as indicated.
(§1) Total RNA was extracted from cultured cells or liver tissue samples using PureLink RNA Mini Kit (Ambion, 12183018A). 0.8 μg of total RNA was reverse transcribed to cDNA in a reaction volume of 10 μl using PrimeScript RT Reagent Kit (TAKARA, RR037A). Quantitative real-time PCR reactions were carried out using iQSYBRGreen (Bio-Rad) in a Bio-Rad iCycler. Gene expression levels were normalized against housekeeping genes HPRT1 and RPLP0.
For liver tissue samples, 5-10 mg of tissues were homogenized by sonication (Qsonica, Model Q125) in 150 μl of 2×SDS-sample buffer. Samples were immediately heated at 100° C. for 3 min with occasional vertexing. Then, 100 μl of 2×SDS-sample buffer was added to each sample and the 250 μl of tissue lysate were further homogenized by sonication and heated again at 100° C. for 3-5 min with vertexing once every 15 sec. Samples (further diluted at 1:1 with 2×SDS-sample buffer before loading) were loaded 5-10 μl per well onto a 4-15% gradient SDS gel, followed by Western blot analysis. Image J was used to quantify the protein bands.

primary human HSCs = assay: qPCR of key pathway genes in primary human HSCs; details: TGF-β1 2 ng/mL vs vehicle, 24 h
Description: as §1

[2] = test system: mouse primary hepatocytes; assay: qPCR and immunoblotting of gene expression in mouse primary hepatocytes
Description: (§2) Mouse primary hepatocytes were prepared as previously described (Zhang N et al., 2018, JCI Insight 3:e120304). Cells were maintained in Williams' Medium (GIBCO, 12551) with 5% FBS, 1% 1 M HEPES buffer (GIBCO, 15630-080), 1% L-Glutamine (GIBCO, 25030-081), 1% SPA (GIBCO, 15240-062), 4 mg/L insulin (GIBCO, 12585-014) and 1 μM dexamethasone (Sigma, D4902). For TET3 overexpression experiments, freshly isolated mouse primary hepatocytes were seeded in 12-well collagen 1-coated plates (BD Biosciences Discovery Labware) at 4×10^5 cells/well and infected with Ad-GFP or Ad-TET3 at 4,000 gc/cell at 3 h after seeding. For TET3 or HNF4α P2 isoform knockdown experiments, cells seeded in 12-well plates were infected with AAV-scr, AAV-siTET3, or AAV-siP2 at 6,000 gc/cell at 3 h after seeding. Medium was changed the next day and glucagon was added at a final concentration of 20 nM. Glucose production assays were carried out at 60 h after infection. Human primary hepatocytes (M00995, Millipore, Sigma) were purchased, thawed, and maintained in InVitroGRO™ CP Medium (Sigma-Aldrich, Z990003) containing 2% Torpedo™ Antibiotic Mix. The cells were seeded in 12-well plates coated with collagen 1 (Millipore, 08-115). Infection of AAV-scr, AAV-sihTET3, and AAV-sihP2 were performed the next day after cell thawing and followed the same dosing protocol for the mouse primary hepatocytes.
Total RNAs were extracted from liver or pancreas tissues or from primary hepatocytes using PureLink RNA Mini Kit. cDNA was synthesized using PrimeScript RT Reagent Kit in a 20 μl reaction containing 0.5-1 μg of total RNA. Real-time quantitative PCR was performed in a 15 μl reaction containing 0.5-1 μl of cDNA using iQSYBRGreen in a Bio-Rad iCycler. PCR was performed by initial denaturation at 95° C. for 5 min, followed by 40 cycles of 30 sec at 95° C., 30 sec at 60° C., and 30 sec at 72° C. Specificity was verified by melting curve analysis. The Ct values of each sample were used in the post-PCR data analysis. Gene expression levels were normalized against house-keeping genes GAPDH and RPLP0.
Primary hepatocytes in 12-well plates were dissociated with 0.25% trypsin. After […] centrifugation at 1000 rpm for 5 min, supernatants were discarded and cell pallets were homogenized in 2×SDS-sample buffer (100 ul/well), followed by heating at 100° C. for 5 min, with occasional vortexing. For liver tissue samples, 5 mg of tissues were minced and 200 μl of 2× SDSsample buffer was added, followed by homogenization on ice using a sonicator (Qsonica, Q125-110). Homogenized samples were heated at 100° C. for 5 min and then centrifuged at 12,000 g for 5 min to remove insoluble materials before loading onto 12% SDS gels (5 μl/well), followed by Western blot analysis. Bands on Western blot gels were quantified using ImageJ. GAPDH was used as a loading control.

[3] = test system: Hnf4a P2 and P1 promoters; assay: ChIP-qPCR and QMSP of Hnf4a promoters in mouse hepatocytes
Description: Genomic DNA was extracted from mouse primary hepatocytes grown in 12-well plates using Quick-gDNA MicroPrep (Zymo Research Corporation, D3021) according to the manufacturer's instructions. For bisulfite treatment, 480 ng of DNA was used for each column using EZ DNA Methylation-Gold Kit (Zymo, D5006). 100 μl of elution buffer was used to elute DNA from each column. Real-time quantitative PCR was performed in a 15 μl reaction containing 5 μl of the eluted DNA using iQSYBRGreen in a Bio-Rad iCycler. Two sets of PCR primers were designed: one for unmethylated and one for methylated DNA sequences. The PCR primers for methylated DNA were used at a final concentration of 0.6 μM in each PCR reaction. PCR was performed by initial denaturation at 95° C. for 5 min, followed by 40 cycles of 30 sec at 95° C., 30 sec at 60° C., and 30 sec at 72° C. Specificity was verified by melting curve analysis. The threshold cycle (Ct) values of each sample were used in the post-PCR data analysis. The ratio of methylated versus unmethylated DNA sequences are presented.
Experiments were performed in a 12-well plate scale using the Pierce Agarose ChIP Kit (Thermo Scientific, 26156) according to the manufacturer's instructions with minor modifications. Briefly, agarose beads were used to pre-bind with antibodies (anti-TET3, anti-Ser-5(P)-RNAP, or pre-immune IgGs as negative controls) overnight at 4° C. The next day, hepatocytes were crosslinked with 1% formaldehyde at room temperature for 10 min, and the reaction was stopped by 1×glycine. ChIPs were carried out overnight at 4° C. Levels of ChIP-purified DNA were determined with qPCR (see Table 1 for primer sequences). The relative enrichments of the indicated DNA regions were calculated using the Percent Input Method according to the manufacturer's instructions and are presented as % input.

[4] = test system: primary human hepatocytes; assay: qPCR of gene expression in primary human hepatocytes; details: glucagon 20 nM vs vehicle
Description: as §2, with “Human primary hepatocytes (M00995, Millipore, Sigma) were purchased, thawed, and maintained in InVitroGRO™ CP Medium (Sigma-Aldrich, Z990003) containing 2% Torpedo™ Antibiotic Mix. The cells were seeded in 12-well plates coated with collagen 1 (Millipore, 08-115). Infection of AAV-scr, AAV-sihTET3, and AAV-sihP2 were performed the next day after cell thawing and followed the same dosing protocol for the mouse primary hepatocytes.” left out
Total RNAs were extracted from liver or pancreas tissues or from primary hepatocytes using PureLink RNA Mini Kit. cDNA was synthesized using PrimeScript RT Reagent Kit in a 20 μl reaction containing 0.5-1 μg of total RNA. Real-time quantitative PCR was performed in a 15 μl reaction containing 0.5-1 μl of cDNA using iQSYBRGreen in a Bio-Rad iCycler. […]

[5] = glucagon-stimulated versus vehicle treated hepatocytes

Substance	LIN28B expression [1]	SMAD3 phosphorylation (with expression of α-SMA, COL1A1, FN1 and TIMP1) [1]	TET3 expression (mRNA and protein) [1]	expression of TGF-β1, TSP1, and TGFBR2 [1]	let-7a and let-7b expression [1]	expression of TET2 and TET1 (primary human HSCs)	expression of TET3, TGFB1, TSP1, TGFBR2, FN1, and COL1A1 (primary human HSCs)	HNF4α P2 usage (qPCR) ([2]; H19 KO hepatocytes, glucagon 20 nM 24 h)	Tet3 expression (qPCR) ([2]; H19 KO primary hepatocytes, glucagon 20 nM 24 h)	Pck1 and G6pc expression (qPCR) ([2]; WT hepatocytes, glucagon 20 nM vs vehicle)	HNF4α P2 and P1 isoform expression (qPCR) ([2]; WT primary hepatocytes)	H19 and Tet3 expression (qPCR) ([2]; WT primary hepatocytes, glucagon 20 nM 24 h or AAV-H19 48 h without glucagon)	binding of TET3 to Hnf4a promoters (ChIP-qPCR) ([3]; glucagon 20 nM 24 h vs vehicle)	methylation of P2 (QMSP) ([3]; glucagon 20 nM 24 h vs vehicle)	RNAP association with P1 (ChIP) [3, 5]	enrichment in RNAP at the P2 promoter (ChIP) [3, 5]	HNF4α expression from P2 and P1 [4]	expression of PCK1 and G6PC [4]
TGF-β1: TGF-β1 (Sigma) used to stimulate LX-2 cells and primary human HSCs	stimulated expression of LIN28B	concomitant increase in SMAD3 phosphorylation; also recorded: increased Smad3 phosphorylation	upregulated TET3; also recorded: increased expression of TET3	also increased	decreased expression of let-7a and let-7b	decreased expression of TET2 and TET1	increased expression of TET3, TGFB1, TSP1, TGFBR2, FN1, and COL1A1	–	–	–	–	–	–	–	–	–	–	–
glucagon	–	–	–	–	–	–	–	failed to do so	no longer stimulated Tet3 expression	increased expression of Pck1 and G6pc	increased P2 usage in WT hepatocytes	readily induced	dramatically increased binding of TET3 to P2 but not P1	significantly decreased methylation of P2	no change in RNAP association with P1	approximately 5 fold	stimulated expression from P2 (but not P1)	increased expression of PCK1 and G6PC
